One block for each compound: values may come before it.
Legend:
[1] = molecular target: Recombinant His-tagged human PARG protein (Homo sapiens (Human), UniProt Q86W56); assay: PARG enzymatic assay (TFMU-ADPr fluorescence); type: biochemical; details: 1 nM enzyme, 200 μM TFMU-ADPr, read after 30 minutes
Protocol: Inhibition of PARG enzymatic activity by compounds was determined as follows: Recombinant His-tagged human PARG protein expressed in Sf21 insect cells (Adipogen AG, #40T-0022) was aliquoted and stored at −80° C. until use. The artificial enzyme substrate 4-(trifluoromethyl)umbelliferone (TFMU)-ADPr was prepared essentially as described (Drown B S et al, Cell Chemical Biology 2018) and stored at −20° C. as 10 mM stock solutions in DMSO (dimethyl sulfoxide) until use. For reactions, typical final concentration of the enzyme was 1 nM and of the TFMU-ADPr 200 μM. Reactions were carried out in black 384-well low volume round bottom assay plates (Corning, #4514) in a final volume of 10 μL. To this end, PARG was diluted to 1.67 nM in reaction buffer (50 mM K2HPO4, 50 mM KCl, 10 mM β-mercaptoethanol, pH 7.4) and 6 μL were dispensed per assay well using a multichannel pipette. Then compound was dispensed into each well using an Echo dispenser (BeckmanCoulter) to yield the pre-specified final concentration of the range of concentrations to be tested (typically 8-point serial concentrations ranging from either from 0.01 to 10 μM, or from 0.001 to 1 μM, or from 0.0001 to 0.1 μM), and being volume-corrected with 100% DMSO (0.5% final DMSO concentration in reaction mixtures). Plates were mixed, and after 15 minutes 4 μL TFMU-ADPr was added into each well using a multichannel pipette followed by brief mixing. Fluorescence intensity signals were then measured after 30 minutes on an EnVision microplate reader (PerkinElmer) using 380/10 nm and 535/25 nm filters for the excitation and emission, respectively (gain: 150). The assay window was set using DMSO control (top) and a control containing no PARG enzyme (bottom). Delta values were plotted as concentration-response curves fitted to a sigmoidal 4-parameter logistic model to calculate IC50 values (Scigilian Analyze).

[2] = molecular target: human PARG (PARG-NanoLuc fusion in HEK293T cells) (Homo sapiens (Human), UniProt Q86W56); assay: PARG NanoBRET-based cellular target engagement assay; type: cell-based; details: HEK293T cells transfected with PARG-NanoLuc, NanoBRET probe 0.89 μM, 2 hours; read-out: PARG TE IC50
Sequence of human PARG (PARG-NanoLuc fusion in HEK293T cells) (Q86W56 whole entry, the tested form may be a part): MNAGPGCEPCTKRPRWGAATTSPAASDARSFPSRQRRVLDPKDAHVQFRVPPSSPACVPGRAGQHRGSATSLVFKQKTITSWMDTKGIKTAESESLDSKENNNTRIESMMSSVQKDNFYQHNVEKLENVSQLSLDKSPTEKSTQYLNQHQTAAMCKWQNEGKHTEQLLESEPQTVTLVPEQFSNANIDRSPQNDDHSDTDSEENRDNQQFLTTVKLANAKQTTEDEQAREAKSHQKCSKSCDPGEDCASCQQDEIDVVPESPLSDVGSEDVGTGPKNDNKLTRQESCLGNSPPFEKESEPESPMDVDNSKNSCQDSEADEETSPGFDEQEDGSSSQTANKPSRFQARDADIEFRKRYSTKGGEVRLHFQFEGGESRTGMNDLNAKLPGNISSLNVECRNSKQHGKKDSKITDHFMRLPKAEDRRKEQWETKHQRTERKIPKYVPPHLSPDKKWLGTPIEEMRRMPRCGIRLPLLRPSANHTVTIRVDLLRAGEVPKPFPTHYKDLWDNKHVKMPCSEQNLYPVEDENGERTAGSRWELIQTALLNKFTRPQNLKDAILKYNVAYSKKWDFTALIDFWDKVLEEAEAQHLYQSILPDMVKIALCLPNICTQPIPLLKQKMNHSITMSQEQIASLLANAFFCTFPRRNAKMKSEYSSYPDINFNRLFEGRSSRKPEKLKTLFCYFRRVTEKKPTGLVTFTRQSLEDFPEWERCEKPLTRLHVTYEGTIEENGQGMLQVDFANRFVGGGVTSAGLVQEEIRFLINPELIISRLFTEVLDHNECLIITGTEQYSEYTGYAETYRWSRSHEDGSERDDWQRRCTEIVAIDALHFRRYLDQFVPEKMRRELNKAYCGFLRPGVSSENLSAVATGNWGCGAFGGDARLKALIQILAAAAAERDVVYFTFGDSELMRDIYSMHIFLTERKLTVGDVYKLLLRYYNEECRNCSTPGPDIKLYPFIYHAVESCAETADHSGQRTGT
Protocol: PARG Nano-luciferase construct: The PARG-NanoLuc® fusion vector was generated by Promega, by inserting the full length human PARG cDNA sequence encoding the 976 amino acid protein (Gene ID: 8505, UniProt: Q86W56) into the pNLF1-C [CMV/Hygro] vector (C-terminal fusions with NanoLuc® enzyme).
PARG target engagement tracer synthesis: The NanoBRET tracer for PARG was prepared following a previously reported general tracer synthesis procedure.
PARG Probe Displacement Assay Using NanoBRET: HEK293T (DSMZ #ACC 635) cells transiently transfected with the PARG-NanoLuc fusion construct were resuspended in phenol red-free OptiMEM (Gibco #11058-021) to a concentration of 2.4×10^5 cells/mL. 9 μL per well were then added to a white 384-well low volume microplate (Greiner #784080) and incubated for 24 hours under standard growth conditions.
Then compound was dispensed into each well using an Echo dispenser (BeckmanCoulter) to yield the pre-specified final concentration of the range of concentrations to be tested (typically 8-point serial concentrations ranging from either from 0.01 to 10 μM, or from 0.001 to 1 μM, or from 0.0001 to 0.1 μM), and being volume-corrected with 100% DMSO (0.5% final DMSO concentration in reaction mixtures).
After mixing and an incubation at room temperature for 15 min 1 μl of the NanoBRET probe (at 0.89 μM final concentration) was added to the microplate using a multichannel pipette. The plate was mixed and incubated in a 5% CO2 environment at 37° C. for 2 hours, and then 5 μL per well of a solution consisting of a 1:31.25 dilution of Nano-Glo substrate (Promega) and a 1:500 dilution of NanoLuc extracellular inhibitor (Promega) in phenol red-free OptiMEM was added to each well followed by another mixing step. Filtered luminescence was measured on an EnVision plate reader (PerkinElmer) equipped with a 460 nm filter (donor) and a 645 nm filter (acceptor). BRET ratios were plotted as concentration-response curves fitted to a sigmoidal 4-parameter logistic model to calculate IC50 values (Scigilian Analyze).

NCI-H1650 = assay: Modified cell proliferation assay (CellTiter-Glo), NCI-H1650; type: cell-based; details: Homo sapiens, NCI-H1650; modified protocol, 384-well, 300 cells per well, 120 h; highest concentration tested 30000 nM; read-out: NCI-H1650 GI50 (high PARG dependency)
Protocol: The cell proliferation assay protocol was modified and used for RMUG-S for Examples 12-44, and subsequently used to test Examples 1-44 in the NCI-H1650 cell line.
NCI-H1650 (ATCC, #CRL-5883) or RMUG-S were seeded on day 1 at 300 cells per well in a 384-well plate (Greiner, #781080) that assure assay linearity and optimal signal intensity in 25 μL of RPMI1640 media (Pan Biotech, #P04-22100) containing 10% FCS (Capricorn, #FBS-11A; Lot. CP22-5141) and 1% Glutamine (Pan Biotech, #P04-80100). After incubation for 24 h in humidified chambers at 37° C./5% CO2, compounds/DMSO were dispensed at different concentrations using an Echo 520 (Beckman Coulter). Cells were further incubated for 120 h at 37° C. and 5% CO2. Cells treated with the compound vehicle DMSO were used as negative controls and cells treated with 10 μM Staurosporine (LC Laboratories, #S-9300) served as positive controls.
At day 6 the CellTiter Glo Reagent was prepared according to the instructions of the kit (Promega Inc.): Reagent was mixed 1:1 with cell culture medium. Thereon, mixture and assay plates were equilibrated at room temperature for 20 min. Equal volumes of the reagent-medium-mixture were added to the volume of culture medium present in each well. The plates were mixed at […] for 2 minutes on an orbital shaker (Timix5, Edmund Buehler GmbH). The microplates were then incubated at room temperature for 10 minutes for stabilization of the luminescent signal. Following incubation, the luminescence was recorded on a Victor X5 microplate reader (Perkin Elmer) using a 200 ms integration time. The data was then analyzed with Excel using the XLFIT Plugin (dose response Fit 205) for determination of the concentration necessary for half-maximal inhibition (i.e. the inflection point of the fitted curve).
As quality control the Z′-factor was calculated from 16 positive and negative control values. Only assay results showing a Z′-factor≥0.5 were used for further analysis.

Sequence of Recombinant His-tagged human PARG protein (Q86W56 whole entry): as the sequence (Q86W56 whole entry, the tested form may be a part) above

SMILES: CC(C)O/N=c1\[nH]c2ccc(S(=O)(=O)NC3(C)CC3)cc2c(=O)n1Cc1cnn(C)c1 [Example 11, 2-isopropoxyimino-N-(1-methylcyclopropyl)-3-[(1-methylpyrazol-4-yl)methyl]-4-oxo-1H-quinazoline-6-sulfonamide]
IC50 [1]: < 30 nM
IC50 [2]: 30 to 99 nM

SMILES: CO/N=c1\[nH]c2c(N3CCN(C(=O)C(C)C)[C@H](C)C3)cc(S(=O)(=O)NC3(C)CC3)cc2c(=O)n1Cc1cnn(C)c1 [Example 35, (R,E)-8-(4-isobutyryl-3-methylpiperazin-1-yl)-2-(methoxyimino)-3-((1-methyl-1H-pyrazol-4-yl)methyl)-N-(1-methylcyclopropyl)-4-oxo-1,2,3,4-tetrahydroquinazoline-6-sulfonamide]
IC50 [1]: < 30 nM
IC50 [2]: < 30 nM
GI50 (NCI-H1650): < 500 nM

SMILES: CO/N=c1\[nH]c2c(-c3ccc(C4(O)CCC4=O)cc3)cc(S(=O)(=O)NC3(C)CC3)cc2c(=O)n1Cc1cnn(C)c1 (stereo not shown) [Example 22, (E)-8-(4-(1-hydroxy-2-oxocyclobutyl)phenyl)-2-(methoxyimino)-3-((1-methyl-1H-pyrazol-4-yl)methyl)-N-(1-methylcyclopropyl)-4-oxo-1,2,3,4-tetrahydroquinazoline-6-sulfonamide]
IC50 [1]: < 30 nM
IC50 [2]: 30 to 99 nM

SMILES: CO/N=c1\[nH]c2c(-c3ccc(C(=O)N(C)C)c(C)c3)cc(S(=O)(=O)NC3(C)CC3)cc2c(=O)n1Cc1cnn(C)c1 [Example 14, (E)-4-(2-(methoxyimino)-3-((1-methyl-1H-pyrazol-4-yl)methyl)-6-(N-(1-methylcyclopropyl)sulfamoyl)-4-oxo-1,2,3,4-tetrahydroquinazolin-8-yl)-N,N,2-trimethylbenzamide]
IC50 [1]: < 30 nM
IC50 [2]: < 30 nM
GI50 (NCI-H1650): < 500 nM

SMILES: CO/N=c1\[nH]c2c(-c3ccc(C(C)=O)cc3)cc(S(=O)(=O)NC3(C)CC3)cc2c(=O)n1Cc1cnn(C)c1 [Example 16, (E)-8-(4-acetylphenyl)-2-(methoxyimino)-3-((1-methyl-1H-pyrazol-4-yl)methyl)-N-(1-methylcyclopropyl)-4-oxo-1,2,3,4-tetrahydroquinazoline-6-sulfonamide]
IC50 [1]: < 30 nM
IC50 [2]: < 30 nM
GI50 (NCI-H1650): > 2000 nM

SMILES: CO/N=c1\[nH]c2c(-c3ccc(C(N)=O)cc3)cc(S(=O)(=O)NC3(C)CC3)cc2c(=O)n1Cc1cnn(C)c1 [Example 15, (E)-4-(2-(methoxyimino)-3-((1-methyl-1H-pyrazol-4-yl)methyl)-6-(N-(1-methylcyclopropyl)sulfamoyl)-4-oxo-1,2,3,4-tetrahydroquinazolin-8-yl)benzamide]
IC50 [1]: < 30 nM
IC50 [2]: 30 to 99 nM
GI50 (NCI-H1650): > 2000 nM

SMILES: CO/N=c1\[nH]c2c(N3CCN(C(=O)C4(C#N)CC4)[C@H](C)C3)cc(S(=O)(=O)NC3(C)CC3)cc2c(=O)n1Cc1cnn(C)c1 [Example 33, (R,E)-8-(4-(1-cyanocyclopropane-1-carbonyl)-3-methylpiperazin-1-yl)-2-(methoxyimino)-3-((1-methyl-1H-pyrazol-4-yl)methyl)-N-(1-methylcyclopropyl)-4-oxo-1,2,3,4-tetrahydroquinazoline-6-sulfonamide]
IC50 [1]: < 30 nM
IC50 [2]: < 30 nM
GI50 (NCI-H1650): < 500 nM

SMILES: CO/N=c1\[nH]c2c(N3CCN(C(=O)N(C)C4CC4)[C@H](C)C3)cc(S(=O)(=O)NC3(C)CC3)cc2c(=O)n1Cc1cnn(C)c1 (single isomer, unassigned) [Example 44]
IC50 [1]: < 30 nM
IC50 [2]: < 30 nM

SMILES: CO/N=c1\[nH]c2ccc(S(=O)(=O)NC3(C)CC3)cc2c(=O)n1Cc1cnn(C(F)(F)F)c1 [Example 6, 2-methoxyimino-N-(1-methylcyclopropyl)-4-oxo-3-[[1-(trifluoromethyl)pyrazol-4-yl]methyl]-1H-quinazoline-6-sulfonamide]
IC50 [1]: 100 to 1000 nM
IC50 [2]: 100 to 1000 nM

Results, then the compound that gave them:

IC50 [1]: < 30 nM
IC50 [2]: < 30 nM
GI50 (NCI-H1650): < 500 nM
SMILES: CO/N=c1\[nH]c2c(N3CCN(C(=O)C4(C)CCC4)[C@H](C)C3)cc(S(=O)(=O)NC3(C)CC3)cc2c(=O)n1Cc1cnn(C)c1 [Example 38, (R,E)-2-(methoxyimino)-3-((1-methyl-1H-pyrazol-4-yl)methyl)-8-(3-methyl-4-(1-methylcyclobutane-1-carbonyl)piperazin-1-yl)-N-(1-methylcyclopropyl)-4-oxo-1,2,3,4-tetrahydroquinazoline-6-sulfonamide]

IC50 [1]: < 30 nM
IC50 [2]: < 30 nM
SMILES: CO/N=c1\[nH]c2c(N3CCN(C(=O)C(F)(F)F)[C@H](C)C3)cc(S(=O)(=O)NC3(C)CC3)cc2c(=O)n1Cc1cnn(C)c1 [Example 42, (R,E)-2-(methoxyimino)-3-((1-methyl-1H-pyrazol-4-yl)methyl)-8-(3-methyl-4-(2,2,2-trifluoroacetyl)piperazin-1-yl)-N-(1-methylcyclopropyl)-4-oxo-1,2,3,4-tetrahydroquinazoline-6-sulfonamide]

IC50 [1]: < 30 nM
IC50 [2]: < 30 nM
SMILES: CO/N=c1\[nH]c2c(N3CCN(C(=O)C(F)(F)C4(O)CCC4)[C@H](C)C3)cc(S(=O)(=O)NC3(C)CC3)cc2c(=O)n1Cc1cnn(C)c1 (single isomer, unassigned) [Example 43]

GI50 (NCI-H1650): < 500 nM
SMILES: CO/N=c1\[nH]c2c(N3CCN(C(=O)C4(C(F)(F)F)CC4)[C@H](C)C3)cc(S(=O)(=O)NC3(C)CC3)cc2c(=O)n1Cc1cnn(C)c1 [Example 32, (R,E)-2-(methoxyimino)-3-((1-methyl-1H-pyrazol-4-yl)methyl)-8-(3-methyl-4-(1-(trifluoromethyl)cyclopropane-1-carbonyl)piperazin-1-yl)-N-(1-methylcyclopropyl)-4-oxo-1,2,3,4-tetrahydroquinazoline-6-sulfonamide]

Reference: patent US20260042754A1, “Substituted Bicyclic Heteroaryl Sulfonamide Derivatives for the Treatment of Cancer” (NODUS ONCOLOGY LIMITED, priority 2022, published 2026)
